This is an account of results in PubChem BioAssay (NCI).

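Assay format: 96-well plates, 48-hour exposure. Definition used: TGI = concentration required for complete inhibition of growth.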

Some test systems named below: SR leukemia; KM12 colon; RPMI-8226 leukemia; SF-295 CNS; OVCAR-8 ovarian; CAKI-1 renal; IGROV1 ovarian; RXF 393 renal; NCI-H23 lung; OVCAR-3 ovarian; HOP-92 NSCLC; UACC-257 melanoma; A549 NSCLC; SK-MEL-5 melanoma; PC-3 prostate.
Test in all cases: inhibition of tumour cell growth, NCI panel, 48 h

`C=C1C(=O)OC2/C=C(\C)C(O)/C=C\C(C)(O)CC(OC(=O)/C(C)=C/C)C12` (stereo not given): the TGI with SR leukemia was 55.7 µM; in the test with KM12 colon it was > 100 µM; with RPMI-8226 leukemia, > 68.6 µM; in the test on SF-295 CNS, > 100 µM; with OVCAR-8 ovarian it was 50.5 µM; in the test with CAKI-1 renal it was > 66.7 µM. The TGI in the test with IGROV1 ovarian was > 100 µM; in the test with RXF 393 renal, 42.6 µM; with NCI-H23 lung, > 100 µM; in the test on OVCAR-3 ovarian, 46.2 µM; in the test on HOP-92 NSCLC it was 77.5 µM; with UACC-257 melanoma, > 77.1 µM. Further, the TGI in the test on A549 NSCLC and in the test on SK-MEL-5 melanoma was > 100 µM in each case.
Turning to `CCCc1c2c3ccccc3nc-2nc2ccccn12`, the TGI with SR leukemia, with KM12 colon, with RPMI-8226 leukemia, in the test on SF-295 CNS, with PC-3 prostate and in the test on OVCAR-8 ovarian was > 100 µM throughout. The TGI is > 100 µM in the test with CAKI-1 renal; > 100 µM in the test on IGROV1 ovarian; 88.6 µM with NCI-H23 lung; > 100 µM with OVCAR-3 ovarian; > 100 µM in the test with HOP-92 NSCLC; > 100 µM in the test on UACC-257 melanoma. Besides, the TGI in the test on A549 NSCLC and with SK-MEL-5 melanoma was > 100 µM each time.
With `COC(=O)C1=C(O)C(C(=O)OC)[C@]2(O)[C@H](C(=O)OC)[C@H]1C[C@@H](c1ccc(OC)cc1)[C@H]2C(=O)OC` (stereo not given in full), the TGI in the test on SR leukemia was 86.1 µM; with KM12 colon, 41.3 µM; in the test with RPMI-8226 leukemia it was 57.4 µM; in the test with SF-295 CNS it was > 100 µM; with OVCAR-8 ovarian it was > 100 µM; with CAKI-1 renal, 62.1 µM. The TGI was > 100 µM with IGROV1 ovarian; 42 µM with RXF 393 renal; > 100 µM in the test on NCI-H23 lung; > 100 µM with HOP-92 NSCLC; > 100 µM in the test on UACC-257 melanoma; 62.8 µM with A549 NSCLC. The TGI with SK-MEL-5 melanoma amounted to 55.8 µM.
For `O=C(O)c1ccccc1/C=N\NC1=NCCN1`, the TGI with SR leukemia, in the test on KM12 colon, in the test with RPMI-8226 leukemia, with SF-295 CNS, with PC-3 prostate and in the test with OVCAR-8 ovarian was > 100 µM each time. Besides, the TGI with CAKI-1 renal, with IGROV1 ovarian, in the test with NCI-H23 lung, in the test with OVCAR-3 ovarian, in the test on HOP-92 NSCLC and with UACC-257 melanoma was > 100 µM throughout. The TGI with A549 NSCLC and in the test on SK-MEL-5 melanoma was > 100 µM each time.
Consider `Cc1ccc2[nH]c3c(C)c4ccncc4c(C)c3c2c1`, for which the TGI in the test with SR leukemia came out at 4.25 µM; in the test with KM12 colon, 2.12 µM; with RPMI-8226 leukemia, 4.88 µM; in the test with SF-295 CNS, 2.32 µM; in the test on OVCAR-8 ovarian, 2.25 µM; in the test with CAKI-1 renal, 1.85 µM. The TGI with IGROV1 ovarian came to 2.44 µM; with RXF 393 renal it was 0.513 µM; in the test with NCI-H23 lung, 2.98 µM; in the test with OVCAR-3 ovarian, 3.27 µM; with HOP-92 NSCLC it was 3.09 µM; with UACC-257 melanoma, 2.94 µM. Also, the TGI in the test on A549 NSCLC was 2.63 µM; in the test with SK-MEL-5 melanoma, 2.92 µM.
Turning to `O=[N+]([O-])C1(C2([N+](=O)[O-])CCCC2)CCCC1`, the TGI in the test on SR leukemia, in the test with KM12 colon, in the test with RPMI-8226 leukemia, in the test with PC-3 prostate, with OVCAR-8 ovarian and in the test with CAKI-1 renal was > 100 µM in each case. The TGI in the test on IGROV1 ovarian, in the test on RXF 393 renal, in the test on NCI-H23 lung, with OVCAR-3 ovarian, in the test with UACC-257 melanoma and in the test with A549 NSCLC was > 100 µM each time. Moreover, in the test with SK-MEL-5 melanoma, the TGI is > 100 µM.
Take `CCOC(=O)c1c(SCCO)n(-c2ccccc2)c(=S)n(-c2ccccc2)c1=O`: the TGI with SR leukemia, with KM12 colon, in the test on RPMI-8226 leukemia, in the test with SF-295 CNS, with PC-3 prostate and in the test with OVCAR-8 ovarian was > 100 µM each time. The TGI in the test on CAKI-1 renal, with IGROV1 ovarian, with NCI-H23 lung, in the test with OVCAR-3 ovarian, with HOP-92 NSCLC and in the test with UACC-257 melanoma was > 100 µM in each case. Moreover, the TGI in the test with A549 NSCLC and in the test with SK-MEL-5 melanoma was > 100 µM throughout.
`Nc1c(C(=O)c2ccccc2)[nH]c(NCc2ccccc2)c1C(=S)Nc1ccccc1`: the TGI in the test with SR leukemia, with KM12 colon, with SF-295 CNS, in the test with OVCAR-8 ovarian, in the test with CAKI-1 renal and in the test on IGROV1 ovarian was > 100 µM in each case. The TGI in the test with RXF 393 renal, in the test with NCI-H23 lung, in the test with OVCAR-3 ovarian, in the test with HOP-92 NSCLC, with UACC-257 melanoma and in the test with A549 NSCLC was > 100 µM throughout. In addition, the TGI in the test on SK-MEL-5 melanoma is > 100 µM.
As to `CSc1c(C#N)c2n(c3ccccc3[n+]2C)c2ncccc12`, the TGI in the test on SR leukemia was > 100 µM; with KM12 colon, > 100 µM; in the test on RPMI-8226 leukemia it was > 100 µM; in the test with SF-295 CNS it was > 100 µM; with PC-3 prostate, 45.3 µM; with OVCAR-8 ovarian it was 73.4 µM. In addition, the TGI in the test on CAKI-1 renal was > 100 µM; with IGROV1 ovarian, > 100 µM; in the test on RXF 393 renal it was 37.2 µM; in the test on NCI-H23 lung, 51.6 µM; in the test with OVCAR-3 ovarian, 71.7 µM; in the test on A549 NSCLC it was 77 µM. In the test on SK-MEL-5 melanoma, the TGI is 30.5 µM.
On to `CCCCCCCCCN1CCC(=O)C(C(=O)OC)C1` (stereo not given), for which the TGI is 18.1 µM in the test on SR leukemia; 13.1 µM in the test on KM12 colon; 49.1 µM with RPMI-8226 leukemia; 31.9 µM in the test with SF-295 CNS; 21 µM in the test on OVCAR-8 ovarian; 29.2 µM in the test on CAKI-1 renal. Moreover, the TGI in the test with RXF 393 renal came to 32.7 µM; with NCI-H23 lung it was 8.59 µM; in the test with OVCAR-3 ovarian, 29.4 µM; in the test with HOP-92 NSCLC it was 33.9 µM; in the test with UACC-257 melanoma it was 24.7 µM; in the test with A549 NSCLC, 30.7 µM. The TGI in the test with SK-MEL-5 melanoma was 33 µM.
